≈ marks a conversion by molar mass, not a printed value.
Assays:
[1] = target: T1, immunoproteasome subunit LMP7 (Homo sapiens, UniProt P28062); assay: Proteasome active-site ELISA (ProCISE), LMP7, MOLT-4 lysate; type: biochemical; settings: MOLT4 lysate, 1 h continuous treatment, 25° C.
T1 construct: Lysate from the human acute lymphoblastic leukemia cell line, MOLT-4; endogenous in cells; host or cells: MOLT-4
Method in brief: (§1)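 MOLT-4 cell lysate treated 1 h at 25 °C with compound; probe-bound subunits denatured, pulled down on streptavidin beads and detected with subunit-specific antibodies plus HRP chemiluminescence.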

[2] = target: human constitutive 20S proteasome (c20S) (Homo sapiens, UniProt P28074); assay: 20S proteasome assay, chymotrypsin-like activity (succinyl-Leu-Leu-Val-Tyr-AMC), c20S; type: biochemical; settings: LLVY substrate, 1 h continuous
Text: (§2) Assay buffer consisted of TE buffer [20 mmol/L Tris (pH 8.0), 0.5 mmol/L EDTA] with (20S) or without (cell lysate) 0.03% SDS. Reactions were initiated by enzyme or lysate addition and monitored for AMC product formation at 27jC with a plate-based spectofluorometer (Tecan).

[3] = target: human 20S immunoproteasome (i20S) (Homo sapiens, UniProt P28062); assay: 20S proteasome assay, chymotrypsin-like activity (succinyl-Leu-Leu-Val-Tyr-AMC), i20S; type: biochemical; settings: LLVY substrate, 1 h continuous
Text: as §2

[4] = target: T2, proteasome subunit β5 (beta5) (Homo sapiens, UniProt P28074); assay: Proteasome active-site ELISA (ProCISE), beta5, MOLT-4 lysate; type: biochemical; settings: MOLT4 lysate, human, 1 h continuous treatment, 25° C.
T2 construct: Lysate from the human acute lymphoblastic leukemia cell line, MOLT-4; endogenous in cells; host or cells: MOLT-4
Method in brief: as §1

Solubility pH 7 = settings: pH 7, aqueous buffer

Structure (SMILES)	IC50 [1] [nM]	IC50 [2] [nM]	IC50 [3] [nM]	IC50 [4] [nM]	solubility (Solubility pH 7) [µg/mL]
COc1ccc(C[C@H](NC(=O)[C@H](C)NC(=O)CN2CCOCC2)C(=O)N[C@@H](CC2CCCC2)C(=O)[C@H]2CO2)cc1 [Compound C-1030, (S)-N-((S)-3-cyclopentyl-1-((R)-oxiran-2-yl)-1-oxopropan-2-yl)-3-(4-methoxyphenyl)-2-((S)-2-(2-morpholinoacetamido)propanamido)propanamide]	11.2	201	7.93	497	220 (≈ 0.394 mM)
COc1ccc(C[C@H](NC(=O)[C@H](C)NC(=O)CN2CCOCC2)C(=O)N[C@@H](C[C@@H]2CCC(F)(F)C2)C(=O)[C@@]2(C)CO2)cc1 [Compound C-1033, (S)-N-((S)-3-((S)-3,3-difluorocyclopentyl)-1-((R)-2-methyloxiran-2-yl)-1-oxopropan-2-yl)-3-(4-methoxyphenyl)-2-((S)-2-(2-morpholinoacetamido)propanamido)propanamide]	–	121000	3100	–	3210 (≈ 5.28 mM)
C[C@H](NC(=O)CN1CCOCC1)C(=O)N[C@@H](Cc1ccc(O)c(O)c1)C(=O)N[C@@H](CC1CCCC1)C(=O)[C@@]1(C)CO1 [Compound C-1039, (S)-N-((S)-3-cyclopentyl-1-((R)-2-methyloxiran-2-yl)-1-oxopropan-2-yl)-3-(3,4-dihydroxyphenyl)-2-((S)-2-(2-morpholinoacetamido)propanamido)propanamide]	–	694	202	–	7010 (≈ 12.2 mM)
COc1ccc(C[C@H](NC(=O)[C@@H](C)NC(=O)[C@H]2CCCO2)C(=O)N[C@@H](CC2CCCC2)C(=O)[C@@]2(C)CO2)cc1 [Compound C-1032, (R)-N-((R)-1-(((S)-1-(((S)-3-cyclopentyl-1-((R)-2-methyloxiran-2-yl)-1-oxopropan-2-yl)amino)-3-(4-methoxyphenyl)-1-oxopropan-2-yl)amino)-1-oxopropan-2-yl)tetrahydrofuran-2-carboxamide]	–	24800	436	–	251 (≈ 0.462 mM)
COc1ccc(C[C@H](NC(=O)[C@H](C)NC(=O)CN2CCOCC2)C(=O)N[C@@H](CC2=C(C)CCC2)C(=O)[C@@]2(C)CO2)cc1 [Compound C-1044, (S)-3-(4-methoxyphenyl)-N-((S)-3-(2-methylcyclopent-1-en-1-yl)-1-((R)-2-methyloxiran-2-yl)-1-oxopropan-2-yl)-2-((S)-2-(2-morpholinoacetamido)propanamido)propanamide]	–	9090	2580	–	1900 (≈ 3.25 mM)
COc1ccc([C@H](O)[C@H](NC(=O)[C@H](C)NC(=O)CN2CCOCC2)C(=O)N[C@@H](CC2CCCC2)C(=O)[C@@]2(C)CO2)cc1 [Compound C-1023, (2S,3S)-N-((S)-3-cyclopentyl-1-((R)-2-methyloxiran-2-yl)-1-oxopropan-2-yl)-3-hydroxy-3-(4-methoxyphenyl)-2-((S)-2-(2-morpholinoacetamido)propanamido)propanamide]	–	1880	322	–	3870 (≈ 6.57 mM)
COc1ccc(C[C@H](NC(=O)[C@H](C)NC(=O)CN2CCCC(F)(F)C2)C(=O)N[C@@H](CC2CCCC2)C(=O)[C@@]2(C)CO2)cc1 [Compound C-1043, (S)-N-((S)-3-cyclopentyl-1-((R)-2-methyloxiran-2-yl)-1-oxopropan-2-yl)-2-((S)-2-(2-(3,3-difluoropiperidin-1-yl)acetamido)propanamido)-3-(4-methoxyphenyl)propanamide]	–	404	251	–	79.2 (≈ 0.131 mM)
COc1ccc(C[C@H](NC(=O)[C@H](C)NC(=O)CN2CCOCC2)C(=O)N[C@@H](C[C@H]2CC[C@@H](O)CC2)C(=O)[C@@]2(C)CO2)cc1 [Compound C-1001, (S)-N-((S)-3-((1s,4R)-4-hydroxycyclohexyl)-1-((R)-2-methyloxiran-2-yl)-1-oxopropan-2-yl)-3-(4-methoxyphenyl)-2-((S)-2-(2-morpholinoacetamido)propanamido)propanamide]	–	> 10000	3230	–	2640 (≈ 4.37 mM)
COc1ccc(C[C@H](NC(=O)[C@H](C)NC(=O)CN2CCOCC2)C(=O)N[C@@H](C[C@H]2CCC(F)(F)C2)C(=O)[C@@]2(C)CO2)cc1 [Compound C-1034, (S)-N-((S)-3-((R)-3,3-difluorocyclopentyl)-1-((R)-2-methyloxiran-2-yl)-1-oxopropan-2-yl)-3-(4-methoxyphenyl)-2-((S)-2-(2-morpholinoacetamido)propanamido)propanamide]	–	25400	1050	–	2780 (≈ 4.57 mM)
COc1ccc(C[C@H](NC(=O)[C@@H](C)NC(=O)[C@@H]2CCCO2)C(=O)N[C@@H](CC2CCCC2)C(=O)[C@@]2(C)CO2)cc1 [Compound C-1031, (S)-N-((R)-1-(((S)-1-(((S)-3-cyclopentyl-1-((R)-2-methyloxiran-2-yl)-1-oxopropan-2-yl)amino)-3-(4-methoxyphenyl)-1-oxopropan-2-yl)amino)-1-oxopropan-2-yl)tetrahydrofuran-2-carboxamide]	–	> 250000	2980	–	462 (≈ 0.85 mM)

Next, values leading:

IC50 [1] [nM]	IC50 [2] [nM]	IC50 [3] [nM]	IC50 [4] [nM]	solubility (Solubility pH 7) [µg/mL]	Structure (SMILES)
2.72	46.8	4.7	17.4	298 (≈ 0.523 mM)	COc1ccc(C[C@H](NC(=O)[C@@H](C)NC(=O)[C@H]2CC[C@@H](O)CC2)C(=O)N[C@@H](CC2=CCCC2)C(=O)[C@@]2(C)CO2)cc1 [Compound C-1056, (1s,4S)-N-((R)-1-(((S)-1-(((S)-3-(cyclopent-1-en-1-yl)-1-((R)-2-methyloxiran-2-yl)-1-oxopropan-2-yl)amino)-3-(4-methoxyphenyl)-1-oxopropan-2-yl)amino)-1-oxopropan-2-yl)-4-hydroxycyclohexanecarboxamide]
153	305	66.8	796	3510 (≈ 5.99 mM)	C[C@H](NC(=O)CN1CCOCC1)C(=O)N[C@@H](Cc1ccc(C(N)=O)cc1)C(=O)N[C@@H](CC1CCCC1)C(=O)[C@@]1(C)CO1 [Compound C-1049, 4-((S)-3-(((S)-3-cyclopentyl-1-((R)-2-methyloxiran-2-yl)-1-oxopropan-2-yl)amino)-2-((S)-2-(2-morpholinoacetamido)propanamido)-3-oxopropyl)benzamide]
–	301	113	–	1910 (≈ 3.35 mM)	C[C@H](NC(=O)CN1CCOCC1)C(=O)N[C@@H](Cc1ccc(F)cn1)C(=O)N[C@@H](Cc1ccccc1)C(=O)[C@@]1(C)CO1 [Compound C-1154, (S)-3-(5-fluoropyridin-2-yl)-N-((S)-1-((R)-2-methyloxiran-2-yl)-1-oxo-3-phenylpropan-2-yl)-2-((S)-2-(2-morpholinoacetamido)propanamido)propanamide]
–	38400	1650	–	6010 (≈ 10.5 mM)	COc1ccc(C[C@H](NC(=O)[C@@H](C)NC(=O)[C@H]2CCC(=O)NC2)C(=O)N[C@@H](CC2CCCC2)C(=O)[C@@]2(C)CO2)cc1 [Compound C-1059, (S)-N-((R)-1-(((S)-1-(((S)-3-cyclopentyl-1-((R)-2-methyloxiran-2-yl)-1-oxopropan-2-yl)amino)-3-(4-methoxyphenyl)-1-oxopropan-2-yl)amino)-1-oxopropan-2-yl)-6-oxopiperidine-3-carboxamide]

Reference: patent USRE47302E1 (ONYX THERAPEUTICS INC., priority 2013, dated 2019)
